Drawing on patent US11926628B2 (Gilead Sciences, Inc., priority 2021, dated 2024), this text covers EC50 and IC50 for 17 compounds.

In assay [1] the test system is Jurkat NFκB-luciferase cells. Briefly: Jurkat NFκB-Luciferase Assay. The assay is classed as cell-based. As to conditions: Homo sapiens; Jurkat NFκB-luciferase cells activated with anti-CD3 antibody (OKT3), 2.5 hrs at 37° C.; geometric mean; read-out: DGK NFKb Luciferase EC50. The protocol: The activity of compounds was tested in a cell based NFκB reporter assay. Jurkat cells that are stably expressing a luciferase reporter construct under the transcriptional control of a NFκB reporter element were activated with an anti-CD3 antibody and luciferase levels were measured with a bioluminescence readout. An increase in the levels of bioluminescence was indicative of enhanced T-cell activation following DGKα inhibition by the compound.
Flat-bottom polystyrene plates (384-well, tissue culture treated) were coated overnight at 4° C. with 20 ul/well of a solution of phosphate-buffered saline supplemented with 5 ug/ml anti-CD3 antibody (clone OKT3, Biolegend). The day after, the excess antibody was washed out five times with 100 ul/well of assay medium (RPMI supplemented with 10% fetal bovine serum) using a Biotek EL406 instrument and leaving 20 ul of residual volume in each well. Jurkat NFκB-luciferase cells (Promega #) were harvested and diluted to 1 million cells/ml in assay medium. Sixty nanoliters of test compound dissolved in DMSO at various concentrations were dispensed into 384-well v-bottom polypropylene plates (Greiner) using a Labcyte Echo instrument. Thirty microliters of medium containing the Jurkat NFκB-luciferase cells were then dispensed using a Biotek MicroFlo instrument in each well of the compound-containing plate. The medium/cell/compound mixture was mixed with a Bravo instrument and 20 ul/well of the mixture was transferred to the anti-CD3-coated plate. The assay mixture was then incubated for 2.5 hrs at 37° C. followed by equilibration at 25° C. for 30 min. Forty microliters of One-Glo Ex (Promega) was then added to the assay mixture and luciferase activity was read on a Envision plate reader 7 minutes later.
Bioluminescence data were normalized based on maximum enhancement (1 micromolar of compound) and on basal activation (DMSO) controls. Least squares curve fittings were performed using a four-parameter variable slope nonlinear regression model. EC50 is defined as the concentration of compound required to produce 50% of maximum NFκB luciferase signal. EC50 values from multiple experiments were averaged by geometric mean and the standard deviation was calculated.

The next assay has as its target human DGKα (Homo sapiens (Human), UniProt P23743). As to the kind of experiment: DGKα Biochemical Activity Assay (ADP-Glo). The note with it: recombinant DGKα 1 nM, 100 μM ATP, 18:1 DAG/POPS/octylglucoside micelles, 1 hour at 25° C.; geometric mean; read-out: HTBS DGKa 1X ATP KM IC50. The text has this: Alternatively, the enzymatic activity of human DGKα was monitored in a biochemical assay in the presence or absence of compounds and using micelles containing 18:1 Diacylglycerol (DAG), 16:0-18:1 PS (POPS) and Octylglucoside as substrate. DGKα activity led to conversion of DAG and ATP to Phosphatidic Acid (PA) and ADP. Levels of ADP were monitored by bioluminescence using the ADP-Glo Kinase Assay (Promega) and were indicative of DGKα activity.
Ten nanoliters of test compound dissolved in DMSO at various concentrations were dispensed into a 384-well low volume nonbinding service white plates (Corning #3824) using a Labcyte Echo instrument. Recombinant DGKα (Carna Biosciences) in assay buffer (5 μL in 50 mM MOPS [3-(N-morpholino) propanesulfonic acid], pH 7.2; 0.0025% Triton X-100; 1 mM dithiothreitol; 5 mM MgCl2, 200 μM ATP) was added to the compound-containing plate and was incubated for 15 minutes at 25° C. A substrate solution (5 μL in 1.7 mM 1,2-dioleoyl-sn-glycerol [18:1 DAG], 13.5 mM 1-palmitoyl-2-oleoyl-sn-glycero-3-phospho-L-serine [16:0-18:1 PS](POPS), 2 μM CaCl2, 100 mM Octylglucoside (OG), 1 mM DTT) (obtained from Carna Biosciences) diluted in DGK ALPHA assay buffer was then added to start the reaction. Final concentrations were 1 nM DGKα, 100 μM ATP, 1 μM calcium chloride, 0.85 mM 1,2-dioleoyl-sn-glycerol (18:1 DAG), 6.75 mM 1-palmitoyl-2-oleoyl-sn-glycero-3-phospho-L-serine (16:0-18:1 PS) (POPS), 1 μM CaCl2), 50 mM Octylglucoside (OG) and 5 mM MgCl2. The reaction mixture was incubated at 25° C. for 1 hour. ADP-Glo Reagent (10 μL, 10 mM Mg added) provided by the kit was added to each well and incubated at 25° C. for 40 minutes. Then, 20 μL of Kinase Detection Reagent was added and incubated at 25° C. for 40 minutes. Luciferase activity of each well was measured via luminescence on an Envision plate reader (PerkinElmer).
Data were normalized based on maximum inhibition (50 μM of kinase inhibitor CU3) and no inhibition (DMSO) controls. Least squares curve fittings were performed using a four-parameter variable slope nonlinear regression model. IC50 was defined as the concentration of compound required to inhibit 50% of maximum activity. IC50 values from multiple experiments were averaged by geometric mean and the standard deviation was calculated.

human DGKα, sequence (P23743 whole entry): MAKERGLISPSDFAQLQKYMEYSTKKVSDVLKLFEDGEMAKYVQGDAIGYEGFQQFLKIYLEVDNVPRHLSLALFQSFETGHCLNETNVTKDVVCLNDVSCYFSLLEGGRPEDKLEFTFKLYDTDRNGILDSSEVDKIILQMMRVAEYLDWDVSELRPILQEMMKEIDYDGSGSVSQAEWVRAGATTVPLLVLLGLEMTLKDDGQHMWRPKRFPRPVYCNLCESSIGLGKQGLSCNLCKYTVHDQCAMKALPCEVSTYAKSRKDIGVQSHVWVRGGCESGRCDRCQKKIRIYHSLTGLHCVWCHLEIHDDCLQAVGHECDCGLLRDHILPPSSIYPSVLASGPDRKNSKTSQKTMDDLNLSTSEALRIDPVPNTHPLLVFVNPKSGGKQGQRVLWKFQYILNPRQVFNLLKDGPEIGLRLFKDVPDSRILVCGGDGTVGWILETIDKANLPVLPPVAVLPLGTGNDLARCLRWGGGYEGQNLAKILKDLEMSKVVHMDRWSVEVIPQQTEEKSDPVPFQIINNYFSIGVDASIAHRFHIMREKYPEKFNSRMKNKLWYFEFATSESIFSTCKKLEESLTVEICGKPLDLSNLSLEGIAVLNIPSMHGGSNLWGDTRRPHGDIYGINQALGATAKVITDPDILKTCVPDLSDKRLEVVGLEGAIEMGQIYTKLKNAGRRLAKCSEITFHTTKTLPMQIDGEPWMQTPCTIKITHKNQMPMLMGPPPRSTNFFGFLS

One may read the EC50 as the concentration at which the effect is half-maximal. Broadly, the IC50 is the concentration that inhibits the measured activity by half. In the case of `Cc1nnc2nc(N(CC(F)F)c3cc(F)cc(C#CC4(C(F)(F)F)CC4)c3)c3ncccc3n12` [Example 18, N-(2,2-difluoroethyl)-N-(3-fluoro-5-((1-(trifluoromethyl)cyclopropyl)ethynyl)phenyl)-1-methylpyrido[2,3-e][1,2,4]triazolo[4,3-a]pyrimidin-5-amine], the EC50 in assay [1] was 4.73 nM. For the same compound, at human DGKα, the half-maximal inhibitory concentration (IC50) was determined as 64.4 nM.

As to `CC(C)(O)C#Cc1cc(F)cc(N(CC(F)F)c2nc3nncn3c3cccnc23)c1` [Example 19, 4-(3-((2,2-difluoroethyl)(pyrido[2,3-e][1,2,4]triazolo[4,3-a]pyrimidin-5-yl)amino)-5-fluorophenyl)-2-methylbut-3-yn-2-ol], the EC50 in assay [1] was 47.7 nM. Moreover, the IC50 on human DGKα was 67.6 nM.

For `Fc1cc(C#CC2(C(F)(F)F)CC2)cc(N(CC(F)F)c2nc3nncn3c3cccnc23)c1` [Example 20, N-(2,2-difluoroethyl)-N-(3-fluoro-5-((1-(trifluoromethyl)cyclopropyl)ethynyl)phenyl)pyrido[2,3-e][1,2,4]triazolo[4,3-a]pyrimidin-5-amine], the EC50 in assay [1] was determined as 2.9 nM. Moreover, the IC50 on human DGKα was 71.8 nM.

For the compound `Cc1nnc2nc(N3CCCc4c(C#CC(C)(C)C(F)(F)F)cccc43)c3ncccc3n12` [Example 21, 3-methyl-8-[5-(4,4,4-trifluoro-3,3-dimethyl-but-1-ynyl)-3,4-dihydro-2H-quinolin-1-yl]-2,4,5,7,10-pentazatricyclo[7.4.0.02,6]trideca-1(13),3,5,7,9,11-hexaene], the EC50 in assay [1] worked out at 12.5 nM. The concentration for half-maximal inhibition (IC50) at human DGKα was 73.9 nM.

`Cc1nnc2nc(N3CCCc4c(C#CC5(C)CC5)cccc43)c3ncccc3n12` [Example 22, 3-methyl-8-[5-[2-(1-methylcyclopropyl)ethynyl]-3,4-dihydro-2H-quinolin-1-yl]-2,4,5,7,10-pentazatricyclo[7.4.0.02,6]trideca-1(13),3,5,7,9,11-hexaene]: in assay [1], the 50% effective concentration (EC50) amounted to 3.26 nM. In addition, the IC50 on human DGKα was 23.2 nM.

Regarding `Cc1nnc2nc(N3CCCc4c(C#CC5(C(F)(F)F)CC5)cccc43)c3ncccc3n12` [Example 23, 3-methyl-8-[5-[2-[1-(trifluoromethyl)cyclopropyl]ethynyl]-3,4-dihydro-2H-quinolin-1-yl]-2,4,5,7,10-pentazatricyclo[7.4.0.02,6]trideca-1(13),3,5,7,9,11-hexaene], the EC50 in assay [1] was determined as 13.5 nM. For the same compound, the IC50 on human DGKα was determined as 41.9 nM.

As for `CC1(C#Cc2cccc3c2CCCN3c2nc3nncn3c3cccnc23)CC1` [Example 24, 8-[5-[2-(1-methylcyclopropyl)ethynyl]-3,4-dihydro-2H-quinolin-1-yl]-2,4,5,7,10-pentazatricyclo[7.4.0.02,6]trideca-1(13),3,5,7,9,11-hexaene], in assay [1], the EC50 is 2.77 nM. At human DGKα, the IC50 was 17 nM.

For `FC(F)(F)C1(C#Cc2cccc3c2CCCN3c2nc3nncn3c3cccnc23)CC1` [Example 25, 8-[5-[2-[1-(trifluoromethyl)cyclopropyl]ethynyl]-3,4-dihydro-2H-quinolin-1-yl]-2,4,5,7,10-pentazatricyclo[7.4.0.02,6]trideca-1(13),3,5,7,9,11-hexaene], the 50% effective concentration (EC50) in assay [1] is 3.08 nM. Moreover, at human DGKα, the IC50 stood at 22.6 nM.

On to `Cc1nnc2nc(N3CCCc4c(C#CC5(CF)CC5)cccc43)c3ncccc3n12` [Example 26, 5-(5-((1-(fluoromethyl)cyclopropyl)ethynyl)-3,4-dihydroquinolin-1(2H)-yl)-1-methylpyrido[2,3-e][1,2,4]triazolo[4,3-a]pyrimidine], for which the half-maximal effective concentration (EC50) in assay [1] was found to be 8.37 nM. Also, the IC50 at human DGKα was 21.2 nM.

For `FCC1(C#Cc2cccc3c2CCCN3c2nc3nncn3c3cccnc23)CC1` [Example 27, 5-(5-((1-(fluoromethyl)cyclopropyl)ethynyl)-3,4-dihydroquinolin-1(2H)-yl)pyrido[2,3-e][1,2,4]triazolo[4,3-a]pyrimidine], in assay [1], the half-maximal effective concentration (EC50) is 6.11 nM. Moreover, the concentration for half-maximal inhibition (IC50) on human DGKα is 6.83 nM.

Turning to `Cc1nnc2nc(N3CCCc4c(C#CC(C)(C)O)cccc43)c3c(F)cncc3n12` [Example 28, 4-(1-(6-fluoro-1-methylpyrido[4,3-e][1,2,4]triazolo[4,3-a]pyrimidin-5-yl)-1,2,3,4-tetrahydroquinolin-5-yl)-2-methylbut-3-yn-2-ol], the concentration giving a half-maximal response (EC50) in assay [1] worked out at 33.6 nM. At human DGKα, the IC50 amounted to 11.9 nM.

As to `Cc1nnc2nc(N3CCCc4c3ccnc4C#CC3(C(C)(F)F)CC3)c3c(F)cncc3n12` [Example 29, 5-(5-((1-(1,1-difluoroethyl)cyclopropyl)ethynyl)-3,4-dihydro-1,6-naphthyridin-1(2H)-yl)-6-fluoro-1-methylpyrido[4,3-e][1,2,4]triazolo[4,3-a]pyrimidine], the EC50 in assay [1] is 7.24 nM. The half-maximal inhibitory concentration (IC50) at human DGKα was 37.7 nM.

For the compound `Cc1nnc2nc(N3CCCc4c3ccnc4C#CC(C)(C)C(F)(F)F)c3c(F)cncc3n12` [Example 30, 6-fluoro-1-methyl-5-(5-(4,4,4-trifluoro-3,3-dimethylbut-1-yn-1-yl)-3,4-dihydro-1,6-naphthyridin-1(2H)-yl)pyrido[4,3-e][1,2,4]triazolo[4,3-a]pyrimidine], in assay [1], the EC50 was 13.2 nM. For the same compound, the half-maximal inhibitory concentration (IC50) on human DGKα was determined as 24.8 nM.

With `Cc1nnc2nc(N3CCCc4c3ccnc4C#CC(C)(C)C#N)c3c(F)cncc3n12` [Example 31, 4-(1-(6-fluoro-1-methylpyrido[4,3-e][1,2,4]triazolo[4,3-a]pyrimidin-5-yl)-1,2,3,4-tetrahydro-1,6-naphthyridin-5-yl)-2,2-dimethylbut-3-ynenitrile], the concentration for a half-maximal effect (EC50) in assay [1] came out at 81.1 nM. In addition, on human DGKα, the IC50 was determined as 72.3 nM.

On to `Cc1nnc2nc(N3CCCc4c3ccnc4C#CC3(C)CC3)c3c(F)cncc3n12` [Example 32, 6-fluoro-1-methyl-5-(5-((1-methylcyclopropyl)ethynyl)-3,4-dihydro-1,6-naphthyridin-1(2H)-yl)pyrido[4,3-e][1,2,4]triazolo[4,3-a]pyrimidine], for which the EC50 in assay [1] came to 8.79 nM. Also, at human DGKα, the IC50 is 12.6 nM.

On to `Cc1nnc2nc(N3CCCc4c3ccnc4C#CC3(C(F)(F)F)CC3)c3c(F)cncc3n12` [Example 33, 6-fluoro-1-methyl-5-(5-((1-(trifluoromethyl)cyclopropyl)ethynyl)-3,4-dihydro-1,6-naphthyridin-1(2H)-yl)pyrido[4,3-e][1,2,4]triazolo[4,3-a]pyrimidine], for which the concentration giving a half-maximal response (EC50) in assay [1] was determined as 5.13 nM. Also, the IC50 on human DGKα came to 22.4 nM.

In the case of `Cc1nnc2nc(N3CCCc4c(C#CC5(C(C)(F)F)CC5)cncc43)c3c(F)cncc3n12` [Example 34, 5-(5-((1-(1,1-difluoroethyl)cyclopropyl)ethynyl)-3,4-dihydro-1,7-naphthyridin-1(2H)-yl)-6-fluoro-1-methylpyrido[4,3-e][1,2,4]triazolo[4,3-a]pyrimidine], the EC50 in assay [1] turned out to be 3.34 nM. Also, at human DGKα, the concentration for half-maximal inhibition (IC50) amounted to 42.8 nM.
